Experimental data: patent US11458122B2, “Methods for treating diseases and nerve injuries” (CHILDREN'S HOSPITAL MEDICAL CENTER, priority 2017, dated 2022)

How the values were obtained:
[1] = system: Egr2 expression in primary rat SCs; test: Small molecule epigenetic compound screening: Egr2 expression by qRT-PCR; format: cell-based; settings: 8 hours, read-out: Egr2 expression over vehicle treatment
Method: Each compound in the Epigenetics compound library (Cayman, 11076) was diluted to a final concentration of 5 μM in the medium containing DMEM/0.5% FBS with L-glutamine and penicillin/streptomycin. SCs were treated with diluted compounds for 8 hours. Treated SCs were washed with PBS and then treated with SingleShot Cell Lysis Kite (172-5080, BioRad) following the manufacturer's instructions. The cell lysates from each well were collected for qRT-PCR by using iTaq Universal SYBR Green One-Step Kit (BioRad 172-5150,) following the instructions. Each compound was tested in triplicate.
EGR2 is a pro-myelinating regulator that serves an indicator of myelinogenic potential. We developed an unbiased gene expression-based assay using real-time quantitative PCR indexing of Egr2 to identify inhibitors of epigenetic enzymes that […] SC maturation. Cultured rat SCs were treated a library of epigenetics compounds targeting enzymes including methyltransferases, demethylases, histone acetyltransferases, histone deacetylases (HDACs), and acetylated histone regulators.

[2] = system: SCs isolated from neonatal rat sciatic nerve; test: SC cultures treated with HDAC inhibitors: morphology, MPZ/phalloidin immunostaining, qRT-PCR; settings: 24 hours
injured sciatic nerves [3] = test: Compound muscle action potential recording after sciatic nerve transection; format: in vivo, mice; settings: for CMAP amplitude / conduction velocity: Dpi 18, two weeks treatment
Method: CMAPs were amplified and obtained using a Micro 1401 data acquisition unit and analyzed using Spike2 software (<<http://ced.co.uk/products/spkovin>>). Three successive electrical stimulations of the sciatic nerve at 2 mA (0.25-0.5 Hz, 0.1 ms duration) were initiated immediately proximal to the tibial, sural and common peroneal branches via a stimulus isolator connected to the Micro 1401. Conduction velocity was calculated after determining the latency of CMAP onset relative to the stimulus artifact induced by electrical stimulation of the sciatic nerve and the distance between recording and stimulating electrodes measured directly on the nerve. Peak CMAP amplitude and CMAP duration were calculated from each stimulation paradigm. The average of the stimulations of the sciatic nerve for each paradigm were obtained and then averaged across animals.
At Dpi 18, CMAP activity was barely detectable after electrical stimulation of vehicle-treated injured nerves.

rat SC cultures = test: Western blotting of PI3K/AKT/ERK signalling and Ac-PTEN in SC cultures; format: cell-based
Method: (§1) For western blotting, the perineurium and epineurium were removed from sciatic nerves prior to snap-freezing and storage at −80° C. Sciatic nerves and rat SCs were lysed in RIPA buffer, containing protease and phosphatase inhibitors. […] GAPDH (Millipore MAB374) was used as an input control. […] Corresponding secondary antibodies conjugated to HRP were from Jackson ImmunoResearch Laboratories (catalog numbers 111-035-144 and 111-035-003).
The hypermyelinating phenotype observed in Hdac3-cKO mice resembles that of mice overexpressing NRG1 type III. […] Indeed, we detected an increase in the levels of phosphorylated AKT, PI3K, and ERK in Hdac3-cKO nerves at P13 compared to controls (FIG. 5B).
(§2) Treatment of primary rat SCs with the recombinant NRG1 type III for 1 hour led to upregulation of HDAC3 expression (FIG. 5F). This effect appeared to be occluded by a NRG1 signaling inhibitor gefitinib (FIG. 5G), which blocks the signaling of ERBB2/3 receptors activated by NRG1 engagement. Conversely, HDAC3 overexpression inhibited phosphorylation of AKT and ERK induced by NRG1 in SCs (FIG. 5E).

[4] = Experimental autoimmune encephalomyelitis (EAE) induced by MOG35-55; format: in vivo, mice
Method: 8-week-old female C57BL/6 (Charles River lab) mice received injections of 200 μg of myelin oligodendrocyte glycoprotein (MOG) 35-55 peptide emulsified in complete Freund's adjuvant (BD Biosciences), supplemented with 600 μg of Mycobacterium tuberculosis (strain H37Ra; BD Biosciences). 24 and 72 hours after immunization, mice were given two intraperitoneal injections of 400 ng of pertussis toxins (List Biological Laboratories, Cat # NC9675592). EAE onset was monitored daily and scored with Clinical scores (0=healthy; 1=flaccid tail; 2=ataxia and/or paresis of hindlimbs; 3=paralysis of hindlimbs and/or paresis of forelimbs; 4=tetraparalysis; 5=moribund or death).
In the experimental autoimmune encephalomyelitis (EAE) demyelinating mouse model induced by myelin peptide MOG35-55, the most commonly used animal model of multiple sclerosis (BITTNER et al., “Myelin oligodendrocyte glycoprotein (MOG35-55) induced experimental autoimmune encephalomyelitis (EAE) in C57BL/6 mice” J Vis Exp. (2014) Vol. 86, Article 51275 (doi: 10.3791/51275)), HDAC3 inhibitor administration improved motor function reflected in clinical scores as well as in remyelination.

[5] = cited from earlier work
injured sciatic nerves [6] = test: Sciatic nerve transection injury: remyelination by immunostaining and EM; settings: for regeneration tracks within the tissue bridge: Dpi 6; for percentages of MBP myelinating axons entering the bridge: Dpi 7 vs vehicle; for myelin sheath thickness in the regenerating bridge / percentage of Ki67+ cells / proportion of EGR2+ maturing SCs in the tissue bridge: Dpi 14; for myelinated axons: Dpi 14 vs vehicle; for myelin thickness of the intact sciatic nerves: uninjured nerves of adult mice, Dpi 35
optic nerve [7] = test: Optic tract transection: axon regeneration by CTB tracing; format: in vivo, mice; settings: 10 mg/kg, 28 days after injury
Method: Axon regeneration was assayed by examining axonal fibers labeled with the anterograde tracer, cholera toxin β (CTB, shown in white color), in the optic nerve sections across the lesion site.

optic nerve [8] = test: Optic nerve crush injury: CD68 inflammatory microglia/macrophage cells; format: in vivo, mice; settings: 10 mg/kg i.p., 10 dpi vs DMSO
Description: Crush injury to the optic nerves of mice (wild type mice) was accomplished with the aid of a pair of cross-action forceps, applying a crush injury to the optic nerve at about 2 mm from the eyeball for about 3 seconds in wildtype mice.

[9] = PDA106 100 mg/kg, RGFP966 10 mg/kg
sciatic nerves = test: HDAC3 inhibitors in neonatal mice: developmental myelination of sciatic nerves
[10] = system: HDAC3 expression in primary rat SCs; test: HDAC3 expression in primary SCs treated with NRG1 and gefitinib; format: cell-based; settings: combined with NRG1
Method: as §1
PCR primer sequences are available upon request.
as §2

**Q.** Which fold induction at 5 µM [1] does the source give for `CN(C)c1ccc(C(=O)NCCCCCC(=O)NO)cc1` [CAY10398, 4-(dimethylamino)-N-[6-(hydroxyamino)-6-oxohexyl]-benzamide] here?
**A.** ≥ 5

**Q.** For `CCOC(=O)CCNc1cc(N2CCc3ccccc3CC2)nc(-c2ccccn2)n1` [GSK-J4, Ethyl 3-((6-(4,5-dihydro-1H-benzo[d]azepin-3(2H)-yl)-2-(pyridin-2-yl)pyrimidin-4-yl)amino)propanoate], which fold induction at 5 µM [1] is on record?
**A.** ≥ 5

**Q.** With `Clc1ccc(N/N=C(\c2ccccc2)c2ccccn2)nc1` [JIB-04, (E)-N-(5-Chloro-pyridin-2-yl)-N'-(phenyl-pyridin-2-yl-methylene)-hydrazine] as the compound, how does the fold induction at 5 µM [1] read?
**A.** ≥ 5

**Q.** For `O=C(/C=C/c1ccc(CN(CCO)CCc2c[nH]c3ccccc23)cc1)NO` [LAQ824, (2E)-N-hydroxy-3-[4-[[(2-hydroxyethyl)[2-(1H-indol-3-yl)ethyl]amino]methyl]phenyl]-2-propenamide], which fold induction at 5 µM [1] is on record?
**A.** ≥ 5

**Q.** Which “SC process extension / morphology” value [2] does the source give for `COc1ccc(Cn2ccc3ccc(C(=O)NO)cc32)cc1` [PCI34051] here?
**A.** minimal effects

**Q.** What does the source list for `Cc1ccc(NC(=O)CCCCCC(=O)Nc2ccccc2N)cc1` [PDA106, N1-(2-Aminophenyl)-N7-(4-methylphenyl)-heptanediamide]?
**A.** CMAP amplitude (injured sciatic nerves [3]): increase; conduction velocity (injured sciatic nerves [3]): increase; level of acetylated PTEN (rat SC cultures; SC cultures): increased; p-AKT, p-PI3K and p-ERK levels (rat SC cultures; purified rat SCs): elevation; p-ERK levels (rat SC cultures; rat SCs, combined treatment with NRG1): further enhanced; p-ERK and p-AKT levels (rat SC cultures; rat SCs, single treatment): increased; clinical score (motor function) ([4]; 100 mg/kg i.p. daily for 10 days from PID 15): reduces clinical score; remyelination in the spinal cord / oligodendrocyte myelination in the CNS ([4]; EM of lesion areas at PID 25): promotes oligodendrocyte myelination; half-life [5]: ~8 h; regeneration tracks within the tissue bridge (injured sciatic nerves [6]): opaque regeneration tracks were observed; percentages of MBP myelinating axons entering the bridge (injured sciatic nerves [6]): significantly higher; myelin sheath thickness in the regenerating bridge (injured sciatic nerves [6]): thicker myelin sheaths; percentage of Ki67+ cells (injured sciatic nerves [6]): decreased; proportion of EGR2+ maturing SCs in the tissue bridge (injured sciatic nerves [6]): increased; myelinated axons (injured sciatic nerves [6]): increase; myelin thickness of the intact sciatic nerves (injured sciatic nerves [6]): does not affect; SC process extension / morphology [2]: expansion of cellular processes

**Q.** What does the source list for `Nc1cc(F)ccc1NC(=O)/C=C/c1cnn(C/C=C/c2ccccc2)c1` [RGFP966, (2E)-N-(2-Amino-4-fluorophenyl)-3-[(2E)-1-(3-phenyl-2-propen-1-yl)-1H-pyrazol-4-yl]-2-propenamide]?
**A.** CMAP amplitude (injured sciatic nerves [3]): increase; conduction velocity (injured sciatic nerves [3]): increase; motor nerve function (CMAP recordings) (injured sciatic nerves [3]; Dpi 35): improved motor nerve function; functional recovery (conduction velocity, CMAP amplitude and duration) (injured sciatic nerves [3]; aging mice 10-12 months, Dpi 35): enhances functional recovery; axon regeneration across the lesion site (optic nerve [7]): long-distance axon regeneration; number of CD68 inflammatory microglia/macrophage cells at the injury site (optic nerve [8]): decreased; tolerability / side effects in mice [9]: without adverse effects on mice; half-life [5]: ~1 h; regeneration tracks within the tissue bridge (injured sciatic nerves [6]): opaque regeneration tracks were observed; percentages of MBP myelinating axons entering the bridge (injured sciatic nerves [6]): significantly higher; myelin sheath thickness in the regenerating bridge (injured sciatic nerves [6]): thicker myelin sheaths; percentage of Ki67+ cells (injured sciatic nerves [6]): decreased; proportion of EGR2+ maturing SCs in the tissue bridge (injured sciatic nerves [6]): increased; myelinated axons (injured sciatic nerves [6]): increase; myelin thickness of the intact sciatic nerves (injured sciatic nerves [6]): does not affect; percentage of myelinated axons (sciatic nerves; P7 and P15): increase; number of EGR2-expressing mature SCs in sciatic nerves (sciatic nerves; neonatal mice, daily from P1, P7): elevation; expression of myelination-associated genes Prx, Mbp, Mpz, Egr2 (sciatic nerves; sciatic nerves at P7 vs vehicle): significantly elevated; SC process extension / morphology [2]: expansion of cellular processes

**Q.** With `O=C(CCCCCCC(=O)Nc1ccccc1)NO` [SAHA, N-hydroxy-N'-phenyl-octanediamide] as the compound, how does the fold induction at 5 µM [1] read?
**A.** ≥ 5

**Q.** For `COc1cc2c(NC3CCN(CC4CCCCC4)CC3)nc(N3CCCN(C(C)C)CC3)nc2cc1OCCCN1CCCCC1` [UNC0631, N-[1-(cyclohexylmethyl)-4-piperidinyl]-2-[hexahydro-4-(1-methylethyl)-1H-1,4-diazepin-1-yl]-6-methoxy-7-[3-(1-piperidinyl)propoxy] 4-quinazolinamine], which fold induction at 5 µM [1] is on record?
**A.** ≥ 5

**Q.** Which fold induction at 5 µM [1] does the source give for `COc1cc2c(NC3CCN(C4CCCCC4)CC3)nc(N3CCCN(C(C)C)CC3)nc2cc1OCCCN1CCCCC1` [UNC0646, N-(1-Cyclohexyl-4-piperidinyl)-2-[hexahydro-4-(1-methylethyl)-1H-1,4-diazepin-1-yl]-6-methoxy-7[3-(1-piperidinyl)propoxy]-4-quinazolinamine] here?
**A.** ≥ 5

**Q.** For `CCC(=O)CCCCC[C@@H]1NC(=O)[C@H]2CCCCN2C(=O)[C@H]([C@@H](C)CC)NC(=O)[C@H](Cc2cn(OC)c3ccccc23)NC1=O` [apicidin, Cyclo[(2S)-2-amino-8-oxodecanoyl-1-methoxy-L-tryptophyl-L-isoleucyl-(2R)-2-piperidinexcarbonyl]], which fold induction at 5 µM [1] is on record?
**A.** ≥ 5

**Q.** With `COc1cc2ncnc(Nc3ccc(F)c(Cl)c3)c2cc1OCCCN1CCOCC1` [gefitinib] as the compound, how does the “NRG1-induced upregulation of HDAC3 expression” value [10] read?
**A.** occluded
